For this test, the system named is 883617-216-R-J1-PDC complex spheroid viability. The experiment in a line: Anticancer human tumor 883617-216-R-J1-PDC patient-derived bladder carcinoma cell line growth inhibition [POLQ]. The settings on record: for viability, T/C: stronger effect = lower value. The method, then:
Multicellular complex tumor spheroid response to Polymerase (POL) inhibitors (novobiocin, ART-558, RP6685) in combination with a variety of drugs and investigational agents in selected tumor cell lines
The POL inhibitors (novobiocin, ART-558, and RP6685) were evaluated both individually and in combination with standard of care and investigational anticancer small molecules within a complex spheroid model of solid tumors. . Complex spheroids include a stromal component modeled by human endothelial cells (HUVEC) and fibroblasts modeled by human mesenchymal stem cells (MSCs). The concentration ranges selected for each drug and investigational agent were based upon clinically achievable concentrations if the clinical Cmax of the agent was known.
Compounds. The drugs and investigational agents: novobiocin (NSC847541), ART-558 (NSC835418), RP-6685 (NSC848927), peposertib (NSC802822), ceralasertib (NSC780249), elimusertib (NSC800525), camonsertib (NSC841442), AZD-1390 (NSC803789), olaparib (NSC753686), talazoparib (NSC767125), rucaparib (NSC756644), sotorasib (NSC818433), MRTX-1133 (NSC836407), SN-38 (NSC673596), topotecan (NSC609699), epotoside (NSC141540), doxorubicin (NSC123127), gemcitabine (NSC613327), 5-fluorouracil (NSC19893), paclitaxel (NSC125973), vemurafenib (NSC761431), MSA-2 (NSC828583), SN-011 (NSC837082), adavosertib (NSC754352), prexasertib (NSC758257), carboplatin (NSC241240) and oxaliplatin (NSC266046), were obtained from the National Cancer Institute (NCI) Developmental Therapeutics Program Chemical Repository (21). The FDA-approved anticancer drug set is available from the Developmental Therapeutics Program at https://dtp.cancer.gov/organization/dscb/obtaining/. […] The stock solutions were prepared in dimethyl sulfoxide (DMSO, Sigma-Aldrich, St. Louis, MO, cat. D2650), except for the platinum compounds which were prepared in saline (Quality Biological, Gaithersburg, MD, cat. 114-055-101), at 800-fold the tested concentration and stored at -70 degrees C prior to their use. All drugs and investigational agents were tested over a range starting from a high concentration at or near the clinical Cmax and decreasing in half-log increments. If the clinical Cmax for an agent had not been determined, the highest concentration tested was 10 microM, except for SN-38, which was tested at a high concentration of 1 microM.
Cell Culture. All cells were maintained in an incubator at 37 degrees C and 5% CO2 with 95% humidity. The PDC lines were cultured according to standard operating procedures established by the NCI PDMR (https://pdmr.cancer.gov). Table 3 of the manuscript, lists the cell lines along with the number of the three cell types plated to form the mct-spheroids and media for tumor cell growth. After thawing, all PDC lines, except 997537-175-T-J1-PDC and 415267-285-R-J2-PDC, were cultured in Matrigel-coated flasks prepared with a working solution of 1X Ham's F-12 nutrient mix, without supplementation (Thermo Fisher Scientific, cat. 11765054), 100 U/mL penicillin-streptomycin (Thermo Fisher Scientific, cat. 15140122), and 2.5% Matrigel (Corning Inc., Corning, NY, cat. 354248) for the first three passages. The two PDC lines 997537-175-T-J1-PDC and 415267-285-R-J2-PDC were cultured on uncoated flasks. The 857933-349-R-J2-PDC line was cultured in 6C/Colon 1B media containing advanced DMEM/F-12 (Thermo Fisher Scientific, cat. 12634028), 10 mM HEPES (Thermo Fisher Scientific, cat. 15630080), 1X GlutaMAX supplement (Thermo Fisher Scientific, cat. 35050061), 0.1 mg/mL primocin (InvivoGen, San Diego, CA, cat. ant-pm-2), 10% defined fetal bovine serum, heat inactivated (HyClone Laboratories Inc., Logan, UT, cat. SH30070.03HI), 50% L-WRN conditioned media (ATCC, cat. CRL-3276), 1.25 mM N-Acetyl-L-cysteine (Sigma-Aldrich, cat. A9165), 10 mM nicotinamide (Sigma-Aldrich, cat. N0636), 1X B-27 supplement (Thermo Fisher Scientific, cat. 17504044), 1X N-2 supplement (Thermo Fisher Scientific, cat. […]

“And” between values parts separate entries of the source, which are not always exact repeats. Equal entries are not always repeated.
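Also: spheroids exposed to compounds for seven days before readout.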

The term viability, T/C denotes the ratio of treated to control. Usually IC50 stands for the midpoint of a concentration-inhibition curve. As to `C#Cc1c(F)ccc2cc(O)cc(-c3ncc4c(N5CC6CCC(C5)N6)nc(OCC56CCCN5CC(F)C6)nc4c3F)c12` (stereo unspecified), the viability, T/C was 98% and 83% and 93.6% (compound 0.0316 µM); 95% and 94% and 84.2% (compound 0.1 µM); 101% and 82% and 104% (compound 0.316 µM); 95.3% and 81.1% and 88.5% (compound 1 µM); 94.2% and 83% and 85.1% (compound 3.16 µM); 72.5% and 74.3% and 83.1% (compound 10 µM). The half-maximal inhibitory concentration (IC50) (curve of compound) was more than 10000 nM.
As for `C=CC(=O)N1CCN(c2nc(=O)n(-c3c(C)ccnc3C(C)C)c3nc(-c4c(O)cccc4F)c(F)cc23)C(C)C1` (stereo unspecified), the viability, T/C (compound 0.0316 µM) is 74.3% and 68% and 64%; the viability, T/C (compound 0.1 µM) was 64.8% and 60.8% and 63.8%; the viability, T/C (compound 0.316 µM) is 75.8% and 70.3% and 81.9%; the viability, T/C (compound 1 µM) was 72.6% and 83.2% and 78.3%; the viability, T/C (compound 3.16 µM) is 91.3% and 76.7% and 85%; the viability, T/C (compound 10 µM) was 81.6% and 83.3% and 76.6%. Also, the IC50 (curve of compound) was more than 10000 nM.
Turning to `CC1COCCN1c1cc(C2(O)CC3CCC(C2)O3)c2cnn(-c3ccn[nH]3)c2n1` (stereo unspecified), the viability, T/C (compound 0.0316 µM) is 73.6% and 75.5% and 72.3%; the viability, T/C (compound 0.1 µM) is 55.3% and 49.3% and 45.5%; the viability, T/C (compound 0.316 µM) was 50.6% and 44.3% and 45.2%; the viability, T/C (compound 1 µM) is 30.4% and 30% and 34.4%; the viability, T/C (compound 3.16 µM) was 23.1% and 26.1% and 31%; the viability, T/C (compound 10 µM) is 22.6% and 20.5% and 20.6%. Moreover, the IC50 (curve of compound) was 213 nM and 137 nM and 135 nM.
Regarding `CCc1cc2c(N3CCc4c(cc(Cn5ccnc5)cc4-c4cn(C)nc4C(F)(F)F)C3=O)cc(C)nc2c(OC)n1`, the viability, T/C is, setting by setting: (compound 0.0316 µM) 106% and 92.1% and 103%; (compound 0.1 µM) 91.4% and 85.8% and 99.9%; (compound 0.316 µM) 116% and 83.7% and 101%; (compound 1 µM) 91% and 107% and 80.5%; (compound 3.16 µM) 75% and 69.3% and 71.5%; (compound 10 µM) 54.1% and 46.2% and 47.7%. For the same compound, under “curve of compound”, the IC50 is > 10000 nM and 8290 nM and 9040 nM.
With `CCc1cc2c(N3CCc4c(cc(Cn5ccnc5)cc4-c4cn(C)nc4C(F)(F)F)C3=O)ccnc2c(OC)n1`, the viability, T/C reads like this: (compound 0.0316 µM) 105% and 80.5% and 91.8%; (compound 0.1 µM) 94% and 89.7% and 94.5%; (compound 0.316 µM) 102% and 76.2% and 108%; (compound 1 µM) 107% and 92.5% and 85.3%; (compound 3.16 µM) 80.3% and 74.5% and 92%; (compound 10 µM) 51% and 47.2% and 50.3%. Also, the IC50 (curve of compound) is > 10000 nM and 8890 nM.
Take `COc1cc2cc(C(=O)CCC(=O)O)sc2cc1OC`: the viability, T/C (compound 0.0316 µM) was 95.8% and 105% and 103%; the viability, T/C (compound 0.1 µM) is 112% and 90% and 89.7%; the viability, T/C (compound 0.316 µM) is 91.7% and 102% and 96.7%; the viability, T/C (compound 1 µM) was 99.3% and 108% and 87.7%; the viability, T/C (compound 3.16 µM) was 105% and 96.4% and 83.4%; the viability, T/C (compound 10 µM) is 104% and 107% and 93.9%. Further, the IC50 (curve of compound) was more than 10000 nM.
`O=C(Nc1ccc(O)c(NS(=O)(=O)c2ccc(F)cc2)c1)c1ccc(-c2ccccc2)cc1`: the viability, T/C was 87.6% and 93.4% and 107% (compound 0.0316 µM); 107% and 88.9% and 92.8% (compound 0.1 µM); 91.6% and 80.3% and 81.8% (compound 0.316 µM); 89.6% and 92.9% and 90.9% (compound 1 µM); 99.8% and 81.8% and 76.2% (compound 3.16 µM); 75.6% and 74.6% and 59% (compound 10 µM). For the same compound, for the setting “curve of compound”, the IC50 is more than 10000 nM.
In the case of `CCc1c2c(nc3ccc(O)cc13)-c1cc3c(c(=O)n1C2)COC(=O)[C@]3(O)CC` + COC1C(OC(N)=O)C(O)C(Oc2ccc3c(O)c(NC(=O)c4ccc(O)c(CC=C(C)C)c4)c(=O)oc3c2C)OC1(C)C, the IC50 by setting is: (curve of first compound, second compound 0.0316 µM) 98 nM; (curve of first compound, second compound 0.1 µM) 104 nM; (curve of first compound, second compound 0.316 µM) 60.2 nM; (curve of first compound, second compound 1 µM) 78.4 nM; (curve of first compound, second compound 3.16 µM) 108 nM; (curve of first compound, second compound 10 µM) 99.5 nM. The viability, T/C was 63.7% (second compound 0.0316 µM, first compound 0.00316 µM); 57.6% (second compound 0.0316 µM, first compound 0.01 µM); 67.5% (second compound 0.0316 µM, first compound 0.0316 µM); 47.6% (second compound 0.0316 µM, first compound 0.1 µM); 33.5% (second compound 0.0316 µM, first compound 0.316 µM); 25.2% (second compound 0.0316 µM, first compound 1 µM). For the same compound, the viability, T/C (second compound 0.1 µM, first compound 0.00316 µM) was 58.6%; the viability, T/C (second compound 0.1 µM, first compound 0.01 µM) is 59.3%; the viability, T/C (second compound 0.1 µM, first compound 0.0316 µM) was 59.9%; the viability, T/C (second compound 0.1 µM, first compound 0.1 µM) was 49.7%; the viability, T/C (second compound 0.1 µM, first compound 0.316 µM) was 33.6%; the viability, T/C (second compound 0.1 µM, first compound 1 µM) is 20.7%. Also, the viability, T/C reads like this: (second compound 0.316 µM, first compound 0.00316 µM) 70.1%; (second compound 0.316 µM, first compound 0.01 µM) 62.3%; (second compound 0.316 µM, first compound 0.0316 µM) 55.1%; (second compound 0.316 µM, first compound 0.1 µM) 49.1%; (second compound 0.316 µM, first compound 0.316 µM) 31.6%; (second compound 0.316 µM, first compound 1 µM) 29.7%. In addition, the viability, T/C is, setting by setting: (second compound 1 µM, first compound 0.00316 µM) 68.7%; (second compound 1 µM, first compound 0.01 µM) 59.2%; (second compound 1 µM, first compound 0.0316 µM) 61.4%; (second compound 1 µM, first compound 0.1 µM) 46.9%; (second compound 1 µM, first compound 0.316 µM) 33.6%; (second compound 1 µM, first compound 1 µM) 21.1%. The viability, T/C is 66.8% (second compound 3.16 µM, first compound 0.00316 µM); 58% (second compound 3.16 µM, first compound 0.01 µM); 60.2% (second compound 3.16 µM, first compound 0.0316 µM); 51.8% (second compound 3.16 µM, first compound 0.1 µM); 35% (second compound 3.16 µM, first compound 0.316 µM); 21.1% (second compound 3.16 µM, first compound 1 µM). Besides, the viability, T/C is 71% (second compound 10 µM, first compound 0.00316 µM); 56% (second compound 10 µM, first compound 0.01 µM); 63.3% (second compound 10 µM, first compound 0.0316 µM); 46.2% (second compound 10 µM, first compound 0.1 µM); 42% (second compound 10 µM, first compound 0.316 µM); 21.7% (second compound 10 µM, first compound 1 µM).

The record behind these values is PubChem BioAssay AID1963833 (Molecular Pharmacology Branch, DTP, NCI, 2024).
